Assay results as given in ChEMBL document CHEMBL3045922, “Synthesis of 6-(3-substituted-4H-1,2,4-triazol-4-yl)-2-phenylbenzo[d]oxazoles as potential anticonvulsant agents” (Med Chem Res, 2010).
The source made the active and inactive calls. The calls are words filed in the database; no cut-off is given here.

What was measured:
Mus musculus [1] = test: Anticonvulsant activity in Mus musculus Kunming (mouse) assessed as protection against maximal electroshock-induced seizures at 100 mg/kg, ip at 4 hr; assay type: functional, organism-based; set-up: dose 100 mg/kg
Mus musculus [2] = test: Anticonvulsant activity in Mus musculus Kunming (mouse) assessed as protection against subcutaneous pentylenetetrazole-induced seizures at 100 mg/kg, ip at 4 hr; assay type: functional, organism-based; set-up: dose 100 mg/kg
Mus musculus [3] = test: Neurotoxicity in Mus musculus Kunming (mouse) assessed as minimal motor impairment at 300 mg/kg, ip at 0.5 hr by rotarod test; assay type: toxicity, organism-based; set-up: dose 300 mg/kg, route intraperitoneal; settings: in vivo
Mus musculus [4] = test: Neurotoxicity in Mus musculus Kunming (mouse) assessed as minimal motor impairment at 300 mg/kg, ip at 4 hr by rotarod test; assay type: toxicity, organism-based; set-up: dose 300 mg/kg, route intraperitoneal; settings: in vivo
Mus musculus [5] = test: Protective index, ratio of TD50 for Mus musculus Kunming (mouse) to ED50 for inhibition of maximal subcutaneous pentylenetetrazole-induced seizure in Mus musculus Kunming (mouse); assay type: functional
Mus musculus [6] = test: Anticonvulsant activity in ip dosed Mus musculus Kunming (mouse) assessed as protection against subcutaneous pentylenetetrazole-induced seizures at 0.5 hr; assay type: functional
Mus musculus [7] = test: Anticonvulsant activity in Mus musculus Kunming (mouse) assessed as protection against subcutaneous pentylenetetrazole-induced seizures at 100 mg/kg, ip at 0.5 hr; assay type: functional, organism-based; set-up: dose 100 mg/kg
[8] = Neurotoxicity in ip dosed Mus musculus Kunming (mouse) assessed as minimal motor impairment at 0.5 hr by rotarod test; assay type: toxicity, organism-based; settings: in vivo
Mus musculus [9] = test: Anticonvulsant activity in Mus musculus Kunming (mouse) assessed as protection against maximal electroshock-induced seizures at 100 mg/kg, ip at 0.5 hr; assay type: functional, organism-based; set-up: dose 100 mg/kg
Mus musculus [10] = organism: Mus musculus; test: Protective index, ratio of TD50 for Mus musculus Kunming (mouse) to ED50 for inhibition of maximal electroshock-induced seizure in Mus musculus Kunming (mouse); assay type: functional
Mus musculus [11] = test: Anticonvulsant activity in ip dosed Mus musculus Kunming (mouse) assessed as protection against maximal electroshock-induced seizures at 0.5 hr; assay type: functional

Row | Structure (SMILES) | Activity (Mus musculus [1]) | Activity (Mus musculus [2]) | Activity (Mus musculus [3]) | Activity (Mus musculus [4]) | Ratio TD50/ED50 (Mus musculus [5]) | ED50 (Mus musculus [6]) [mg/kg] | Activity (Mus musculus [7]) | TD50 at 0.5 h [8] [mg/kg] | Activity (Mus musculus [9]) | Ratio TD50/ED50 (Mus musculus [10]) | ED50 (Mus musculus [11]) [mg/kg]
1 | Cc1ccc(-c2nncn2-c2ccc3nc(-c4ccccc4)oc3c2)cc1 | inactive | inactive | Toxic | – | – | – | – | – | – | – | –
2 | CCCCc1nncn1-c1ccc2nc(-c3ccccc3)oc2c1 | inactive | inactive | Non-toxic | Non-toxic | – | – | – | – | – | – | –
3 | CCCc1nncn1-c1ccc2nc(-c3ccccc3)oc2c1 | inactive | inactive | – | Non-toxic | – | – | – | – | – | – | –
4 | c1ccc(-c2nc3ccc(-n4cnnc4)cc3o2)cc1 | Active | inactive | – | Non-toxic | 4.1 | 69.8 | inactive | 285 | Active | 9.7 | 29.5
5 | COc1ccc(-c2nncn2-c2ccc3nc(-c4ccccc4)oc3c2)cc1 | inactive | inactive | Non-toxic | Non-toxic | – | – | inactive | – | – | – | –
6 | Fc1ccc(-c2nncn2-c2ccc3nc(-c4ccccc4)oc3c2)cc1 | inactive | inactive | Non-toxic | Non-toxic | – | – | inactive | – | – | – | –
7 | NC(=O)N1c2ccccc2C=Cc2ccccc21 [CARBAMAZEPINE] | – | – | – | – | <1.3 | > 100 | – | – | – | 6.4 | –
8 | CCCCCc1nncn1-c1ccc2nc(-c3ccccc3)oc2c1 | inactive | inactive | – | – | – | – | inactive | – | inactive | – | –
9 | Fc1cccc(-c2nncn2-c2ccc3nc(-c4ccccc4)oc3c2)c1 | inactive | inactive | Non-toxic | Non-toxic | – | – | inactive | – | – | – | –
10 | Cc1nncn1-c1ccc2nc(-c3ccccc3)oc2c1 | Active | inactive | Toxic | – | 2.3 | 75.6 | – | 167 | Active | 6.3 | 26.5
11 | CCCCCCCCCc1nncn1-c1ccc2nc(-c3ccccc3)oc2c1 | inactive | inactive | Toxic | Toxic | – | – | – | – | inactive | – | –
12 | Clc1cccc(-c2nncn2-c2ccc3nc(-c4ccccc4)oc3c2)c1 | inactive | inactive | Toxic | Non-toxic | – | – | – | – | – | – | –
13 | COc1cccc(-c2nncn2-c2ccc3nc(-c4ccccc4)oc3c2)c1 | inactive | inactive | – | Non-toxic | – | – | inactive | 249 | Active | 3.7 | 66.5
14 | CCc1nncn1-c1ccc2nc(-c3ccccc3)oc2c1 | – | inactive | – | Non-toxic | – | – | – | – | – | – | –
15 | Clc1ccc(-c2nncn2-c2ccc3nc(-c4ccccc4)oc3c2)cc1 | inactive | inactive | Non-toxic | Non-toxic | – | – | inactive | – | – | – | –
16 | c1ccc(-c2nc3ccc(-n4cnnc4-c4ccccc4)cc3o2)cc1 | – | inactive | – | – | – | – | – | 266 | Active | 4.1 | 65.4
17 | O=[N+]([O-])c1ccc(-c2nncn2-c2ccc3nc(-c4ccccc4)oc3c2)cc1 | inactive | inactive | – | – | – | – | inactive | – | inactive | – | –
18 | Clc1ccccc1-c1nncn1-c1ccc2nc(-c3ccccc3)oc2c1 | inactive | inactive | Non-toxic | Non-toxic | – | – | – | – | inactive | – | –
